Data as given in patent US11964967B2, “Cardiac sarcomere inhibitors” (Cytokinetics, Inc., priority 2018, dated 2024).

Biological target: T1, bovine cardiac myofibrils (Bos taurus, UniProt Q9BE39)
T1 construct: full-length cardiac myosin in the context of the native sarcomere; from tissue; host or cells: bovine cardiac left ventricular tissue, homogenized with detergent (triton X-100)
Test: Skinned bovine cardiac myofibril ATPase assay (PK/LDH-coupled)
Assay type: biochemical
Conditions: inhibition of steady-state ATPase activity of bovine cardiac myofibrils, calcium at 75% activation (pCa75), PM12 buffer pH 6.8; for IC50: read-out: CDMF75 IC50
Procedure: To evaluate the effect of compounds on the ATPase activity of full-length cardiac myosin in the context of the native sarcomere, skinned myofibril assays were performed. Bovine cardiac myofibrils were obtained by homogenizing bovine cardiac left ventricular tissue in the presence of a detergent such as triton X-100. Such treatment removes membranes and a majority of the soluble cytoplasmic proteins but leaves intact the cardiac sarcomeric acto-myosin apparatus. Myofibril preparations retain the ability to hydrolyze ATP in an Ca^2+ regulated manner ATPase activities of such myofibril preparations in the presence and absence of compounds were assayed at Ca^2+ concentrations activating to a defined fraction of the maximal rate (i.e., 25%, 75%). Small molecule agents were assessed for their ability to inhibit the steady-state ATPase activity of bovine cardiac myofibrils using pyruvate kinase and lactate dehydrogenase (PK/LDH)-coupled enzyme system. This assay regenerates myosin-produced ADP into ATP by oxidizing NADH, producing an absorbance change at 340 nm. Prior to testing small molecule agents, the bovine cardiac myofibrils were assessed for their calcium responsiveness and the calcium concentration that achieves either a 50% (pCa50) or 75% (pCa75) activation of the myofibril system was chosen as the final condition for assessing the inhibitory activity of the small molecule agents. All enzymatic activity was measured in a buffered solution containing 12 mM PIPES (piperazine-N,N′-bis(2-ethanesulfonic acid), 2 mM magnesium chloride at pH 6.8 (PM 12 buffer). Final assay conditions were 1 mg/mL of bovine cardiac myofibrils, 4 U/mL pyruvate kinase, 6 U/mL lactate dehydrogenase, 50 μM ATP, 0.1 mg/mL BSA (bovine serum albumin), 10 ppm antifoam, 1 mM DTT, 0.5 mM NADH, 1.5 mM PEP, 0.6 mM EGTA, and an amount of CaCl2) sufficient to achieve either 50% or 75% activation of the myofibril ATPase activity. Results for compounds tested are provided in Table A. Compounds tested were prepared in accordance with the synthetic procedures described herein.

T1 sequence (Q9BE39 whole entry): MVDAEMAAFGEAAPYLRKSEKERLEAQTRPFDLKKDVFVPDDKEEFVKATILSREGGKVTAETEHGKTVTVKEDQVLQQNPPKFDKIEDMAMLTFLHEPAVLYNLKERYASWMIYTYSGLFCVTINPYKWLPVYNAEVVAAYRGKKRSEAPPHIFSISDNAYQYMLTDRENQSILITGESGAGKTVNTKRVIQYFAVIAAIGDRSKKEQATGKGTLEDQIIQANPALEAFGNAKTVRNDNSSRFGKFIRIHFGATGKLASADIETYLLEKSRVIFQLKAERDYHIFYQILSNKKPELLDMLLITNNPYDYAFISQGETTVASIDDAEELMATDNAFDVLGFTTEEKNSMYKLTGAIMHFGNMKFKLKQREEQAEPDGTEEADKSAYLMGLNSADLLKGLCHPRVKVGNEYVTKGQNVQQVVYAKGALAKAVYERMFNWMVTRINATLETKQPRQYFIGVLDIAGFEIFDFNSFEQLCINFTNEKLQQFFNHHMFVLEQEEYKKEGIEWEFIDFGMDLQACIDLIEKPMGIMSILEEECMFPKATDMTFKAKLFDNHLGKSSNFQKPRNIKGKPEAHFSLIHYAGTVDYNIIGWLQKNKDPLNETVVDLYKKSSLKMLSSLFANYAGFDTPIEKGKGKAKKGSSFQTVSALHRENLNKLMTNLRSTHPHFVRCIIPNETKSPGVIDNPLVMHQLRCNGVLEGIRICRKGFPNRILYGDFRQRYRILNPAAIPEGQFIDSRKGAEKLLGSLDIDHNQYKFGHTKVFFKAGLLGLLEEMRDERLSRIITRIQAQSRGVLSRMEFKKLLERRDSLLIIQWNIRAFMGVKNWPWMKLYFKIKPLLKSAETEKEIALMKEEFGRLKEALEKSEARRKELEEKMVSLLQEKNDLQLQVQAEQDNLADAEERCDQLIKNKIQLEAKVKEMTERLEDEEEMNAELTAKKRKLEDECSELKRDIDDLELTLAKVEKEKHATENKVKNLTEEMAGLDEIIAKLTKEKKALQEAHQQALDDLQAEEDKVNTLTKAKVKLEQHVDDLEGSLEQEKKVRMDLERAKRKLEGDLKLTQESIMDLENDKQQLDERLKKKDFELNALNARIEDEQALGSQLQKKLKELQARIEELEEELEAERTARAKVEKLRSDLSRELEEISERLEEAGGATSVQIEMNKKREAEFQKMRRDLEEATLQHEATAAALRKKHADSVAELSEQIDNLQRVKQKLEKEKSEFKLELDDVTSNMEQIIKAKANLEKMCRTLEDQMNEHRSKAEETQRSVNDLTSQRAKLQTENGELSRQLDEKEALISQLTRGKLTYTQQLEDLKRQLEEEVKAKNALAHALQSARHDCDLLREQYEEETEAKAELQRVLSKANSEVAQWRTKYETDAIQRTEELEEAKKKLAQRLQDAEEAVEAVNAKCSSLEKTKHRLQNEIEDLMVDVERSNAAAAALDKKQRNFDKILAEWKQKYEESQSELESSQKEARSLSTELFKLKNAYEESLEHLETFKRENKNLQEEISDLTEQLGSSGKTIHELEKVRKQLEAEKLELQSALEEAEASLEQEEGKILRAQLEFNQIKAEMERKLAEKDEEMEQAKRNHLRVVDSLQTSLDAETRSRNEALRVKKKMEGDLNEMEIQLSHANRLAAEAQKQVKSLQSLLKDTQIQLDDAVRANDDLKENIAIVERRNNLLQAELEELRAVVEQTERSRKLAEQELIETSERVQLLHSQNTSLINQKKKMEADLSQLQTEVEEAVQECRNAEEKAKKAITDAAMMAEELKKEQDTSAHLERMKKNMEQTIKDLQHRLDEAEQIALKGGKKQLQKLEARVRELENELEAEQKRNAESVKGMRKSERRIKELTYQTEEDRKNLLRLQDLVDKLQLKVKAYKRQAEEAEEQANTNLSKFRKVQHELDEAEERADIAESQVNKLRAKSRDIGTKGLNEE
T1 sequence (P85100 whole entry partner): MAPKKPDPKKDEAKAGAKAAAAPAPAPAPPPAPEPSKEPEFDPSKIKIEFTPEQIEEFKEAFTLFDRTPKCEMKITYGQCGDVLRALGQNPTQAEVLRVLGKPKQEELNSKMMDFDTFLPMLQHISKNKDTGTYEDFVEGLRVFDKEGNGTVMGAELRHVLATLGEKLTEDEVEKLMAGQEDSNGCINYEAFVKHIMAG
T1 sequence (Q3SZE5 whole entry partner): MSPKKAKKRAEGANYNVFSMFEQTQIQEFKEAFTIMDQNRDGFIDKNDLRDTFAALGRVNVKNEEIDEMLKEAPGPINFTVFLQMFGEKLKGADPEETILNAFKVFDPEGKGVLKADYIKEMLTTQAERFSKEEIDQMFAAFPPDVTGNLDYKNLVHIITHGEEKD

Row | CDMF75 IC15 [µM] | IC50 [µM] | SMILES
1 | 0.6 | 2.2 | CCc1nc(-c2ccc3c(c2)OCC32COC(=O)N2)no1 (racemic) [Compound 41, 6-(5-ethyl-1,2,4-oxadiazol-3-yl)-2H-spiro[benzofuran-3,4′-oxazolidin]-2′-one]
2 | 2.9 | 13.6 | Cc1cc(NC(=O)C2CCc3cc(-c4noc(C)n4)ccc32)ccn1 (single isomer, unassigned) [Compound 17A]
3 | 3.9 | 15.9 | CCc1nc(-c2ccc3c(c2)CCC3C(=O)Nc2cnn(C)c2)no1 (centres unmarked) [Compound 1, 5-(5-ethyl-1,2,4-oxadiazol-3-yl)-N-(1-methyl-1H-pyrazol-4-yl)-2,3-dihydro-1H-indene-1-carboxamide]
4 | 17.5 | > 39.2 | CCc1nc(-c2ccc3c(c2)CCC3C(=O)Nc2ccnc(C)c2)no1 (single isomer, unassigned) [Compound 2B]
